In ChEMBL document CHEMBL1140851, “Synthesis of new amonafide analogues via coupling reaction and their cytotoxic evaluation and DNA-binding studies” (Bioorg Med Chem, 2009):
Activity calls are given as the source filed them. The rule behind the calls is not given here.

Key:
[1] = Cytotoxicity against mouse P388D1 cells after 48 hrs by MTT assay; assay type: functional, cell-based; conditions: P388D1, 48 h
DNA [2] = assay: Binding affinity to calf thymus DNA assessed as Scatchard binding constant by fluorescence quenching technique; assay type: nucleic-acid assay; conditions: Bos taurus
HeLa = assay: Cytotoxicity against human HeLa cells after 48 hrs by MTT assay; assay type: functional, cell-based
DNA [3] = assay: Binding affinity to calf thymus DNA assessed as hypochromicity at 50 uM by UV-vis absorption spectra; assay type: nucleic-acid assay; conditions: Bos taurus
DNA [4] = assay: Binding affinity to calf thymus DNA assessed as circular dichroism at 10 uM; assay type: nucleic-acid assay; conditions: Bos taurus
DNA [5] = assay: Binding affinity to calf thymus DNA assessed as increase in viscosity of DNA by viscometric titration; assay type: nucleic-acid assay; conditions: Bos taurus

Compound | Kb (DNA [2]) | Activity (DNA [3]) | Activity (DNA [4]) | Activity (DNA [5]) | IC50 [1] | IC50 (HeLa)
CN(C)CCN1C(=O)c2cccc3cc(NCc4cccs4)cc(c23)C1=O | 1.06 ×10⁵ /M |  |  |  | 9.46 µM | 3.54 µM
CN(C)CCN1C(=O)c2cccc3cc(N)cc(c23)C1=O [AMONAFIDE] | 1.05 ×10⁵ /M |  |  |  | 6.02 µM | 0.68 µM
CN(C)CCNc1cc2c3c(cccc3c1)C(=O)N(CCN(C)C)C2=O | 1.85 ×10⁵ /M | Active | Active | Active | 0.62 µM | 0.83 µM
CN(C)CCN1C(=O)c2cccc3cc(N4CCCCC4)cc(c23)C1=O | 0.85 ×10⁵ /M |  |  |  | 21.6 µM | 2.64 µM
CN(C)CCN1C(=O)c2cccc3cc(N4CCN(C)CC4)cc(c23)C1=O | 2.48 ×10⁵ /M | Active | Active | Active | 1.93 µM | 0.43 µM

Further lines, with some results ahead:

Kb (DNA [2]) | Activity (DNA [3]) | Activity (DNA [4]) | Activity (DNA [5]) | Compound | IC50 [1] | IC50 (HeLa)
1.23 ×10⁵ /M |  |  |  | CCCCNc1cc2c3c(cccc3c1)C(=O)N(CCN(C)C)C2=O | 9.42 µM | 3.24 µM
0.79 ×10⁵ /M |  |  |  | CN(C)CCN1C(=O)c2cccc3cc(N4CCSCC4)cc(c23)C1=O | 36.3 µM | 2.34 µM
0.97 ×10⁵ /M |  |  |  | CN(C)CCN1C(=O)c2cccc3cc(N4CCOCC4)cc(c23)C1=O | 9.44 µM | 0.53 µM
1.75 ×10⁵ /M |  |  |  | CN(C)CCCNc1cc2c3c(cccc3c1)C(=O)N(CCN(C)C)C2=O | 0.71 µM | 0.23 µM
